Laboratory results published in EP1200406B1, “CYCLIC AMIDES AND IMIDES HAVING SELECTIVE ANTAGONIST ACTIVITY AT ALPHA-1D ADRENERGIC RECEPTOR” (RECORDATI INDUSTRIA CHIMICA E FARMACEUTICA S.p.a., priority 1999, dated 2001).
Like-named read-outs stand apart in the source and are kept apart here.

How the values were obtained:
[1] = target: T1, human recombinant α1d adrenoceptor (Homo sapiens, UniProt P25100); assay: Radioligand binding ([3H]prazosin) on membranes of CHO cells expressing cloned α1d adrenoceptor; conditions: human cloned receptor, CHO cell membranes, 0.2 nM [3H]prazosin; read-out: Affinity (Ki) α1d
T1 construct: expressed in transfected cells; host or cells: CHO cells (membranes)
T1 sequence (P25100 1-572): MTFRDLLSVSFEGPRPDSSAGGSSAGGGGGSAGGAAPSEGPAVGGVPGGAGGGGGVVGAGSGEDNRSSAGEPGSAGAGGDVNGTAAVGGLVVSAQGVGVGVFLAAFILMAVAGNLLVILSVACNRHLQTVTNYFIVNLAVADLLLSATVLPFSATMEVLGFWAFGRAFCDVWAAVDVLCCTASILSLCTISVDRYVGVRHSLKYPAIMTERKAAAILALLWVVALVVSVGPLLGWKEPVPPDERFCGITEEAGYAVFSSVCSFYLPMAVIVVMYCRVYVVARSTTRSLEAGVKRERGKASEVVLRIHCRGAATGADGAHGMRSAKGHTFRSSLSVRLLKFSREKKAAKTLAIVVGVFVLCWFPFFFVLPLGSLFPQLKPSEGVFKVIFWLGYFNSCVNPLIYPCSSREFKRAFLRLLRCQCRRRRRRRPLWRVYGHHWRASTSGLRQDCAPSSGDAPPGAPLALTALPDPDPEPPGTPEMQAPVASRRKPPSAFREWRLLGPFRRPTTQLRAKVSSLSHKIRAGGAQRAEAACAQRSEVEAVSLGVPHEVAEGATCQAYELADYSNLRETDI
Protocol: (§1) The determination of affinity for cloned subtypes of human α1 adrenergic receptors was performed in membranes from CHO cells (chinese hamster ovary cells) transfected by electroporation with DNA expressing the genes encoding each α1-adrenoceptor subtype, namely α1a, α1b and α1d.. Cloning and stable expression of the human α1-adrenoceptor gene were performed as previously described (Testa et al., Pharmacol. Comm. 6, 79-86 (1995)). CHO cell membranes were incubated in […] Tris pH 7.4 with 0.2 nM [^3H]prazosin, in a final volume of 1.02 ml for 30 minutes at 25°C, in the absence or presence of competing drugs (1 pM-10 µM). Non-specific binding was determined in the presence of 10 µM phentolamine. Incubation was stopped by addition of ice-cold Tris buffer and rapid filtration through 0.2% polyethyleneimine pretreated Schleicher & Schuell GF52 filters. […] The HeLa cells were grown as monolayers in Dulbecco's modified Eagle's medium (DMEM), supplemented with 10% foetal calf serum and gentamicin (100 µg/ml), 5% CO2, at 37°C. The cells were detached from the growth flask at 95% confluence by a cell scraper and were lysed in ice-cold 5 mM Tris and 5-mM EDTA buffer (pH 7.4). The homogenates were centrifuged at 40000 x g x 20 minutes and the membranes were re-suspended in a small volume of ice-cold 5 mM Tris and 5-mM EDTA buffer (pH 7.4) and immediately frozen and stored at -70°C until use. On the experiment day, the cell membranes were re-suspended in a buffer containing 50 mM Tris (pH 7.4), 2.5 mM MgCl2, 10 µM pargyline (Fargin et al., Nature 335, 358-360 (1988)). […] The incubation was stopped by addition of ice-cold Tris buffer and rapid filtration through 0.2%-polyethyleneimine-pretreated Schleicher & Schuell filters. The inhibition of specific binding of the radioligands by the drugs was analysed to estimate the IC50 value by using the non-linear curve-fitting programme Allfit (De Lean et al., Am. J. Physiol. 235, E97-E102 (1978)). The IC50 value was converted to an affinity constant (Ki) by the equation of Cheng & Prusoff (Biochem. Pharmacol. 22, 3099-3108 (1973)). Data were expressed as mean of Ki.

[2] = target: T2, human 5-HT1A-serotoninergic receptor (Homo sapiens, UniProt P08908); assay: Radioligand binding ([3H]8-OH-DPAT) on membranes of HeLa cells expressing cloned 5-HT1A receptor; conditions: read-out: Affinity (Ki) 5-HT1A
T2 construct: expressed in transfected cells; host or cells: HeLa cells (membranes)
T2 sequence (P08908 1-422): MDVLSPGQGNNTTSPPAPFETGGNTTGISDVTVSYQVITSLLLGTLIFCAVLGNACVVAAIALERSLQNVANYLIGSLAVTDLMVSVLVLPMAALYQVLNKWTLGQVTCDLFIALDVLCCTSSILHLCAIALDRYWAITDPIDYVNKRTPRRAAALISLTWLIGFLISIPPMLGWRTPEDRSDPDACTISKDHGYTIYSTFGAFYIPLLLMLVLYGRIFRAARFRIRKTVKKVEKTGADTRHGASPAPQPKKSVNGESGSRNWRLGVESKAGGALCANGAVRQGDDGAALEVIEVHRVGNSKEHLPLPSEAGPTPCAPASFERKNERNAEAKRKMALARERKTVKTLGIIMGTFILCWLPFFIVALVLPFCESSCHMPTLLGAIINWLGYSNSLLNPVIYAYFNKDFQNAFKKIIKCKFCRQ
Protocol: (§2) The determination of affinity for cloned subtypes of human α1 adrenergic receptors was performed in membranes from CHO cells (chinese hamster ovary cells) transfected by electroporation with DNA expressing the genes encoding each α1-adrenoceptor subtype, namely α1a, α1b and α1d.. Cloning and stable expression of the human α1-adrenoceptor gene were performed as previously described (Testa et al., Pharmacol. Comm. 6, 79-86 (1995)). CHO cell membranes were incubated in […] Tris pH 7.4 with 0.2 nM [^3H]prazosin, in a final volume of 1.02 ml for 30 minutes at 25°C, in the absence or presence of competing drugs (1 pM-10 µM). Non-specific binding was determined in the presence of 10 µM phentolamine. Incubation was stopped by addition of ice-cold Tris buffer and rapid filtration through 0.2% polyethyleneimine pretreated Schleicher & Schuell GF52 filters. Genomic clone G-21 coding for the human 5-HT1A-serotoninergic receptor was stably transfected in a human cell line (HeLa) (Fargin et al., J. Biol. Chem. 284, 14848-14852 (1989)). The HeLa cells were grown as monolayers in Dulbecco's modified Eagle's medium (DMEM), supplemented with 10% foetal calf serum and gentamicin (100 µg/ml), 5% CO2, at 37°C. The cells were detached from the growth flask at 95% confluence by a cell scraper and were lysed in ice-cold 5 mM Tris and 5-mM EDTA buffer (pH 7.4). The homogenates were centrifuged at 40000 x g x 20 minutes and the membranes were re-suspended in a small volume of ice-cold 5 mM Tris and 5-mM EDTA buffer (pH 7.4) and immediately frozen and stored at -70°C until use. On the experiment day, the cell membranes were re-suspended in a buffer containing 50 mM Tris (pH 7.4), 2.5 mM MgCl2, 10 µM pargyline (Fargin et al., Nature 335, 358-360 (1988)). […] The incubation was stopped by addition of ice-cold Tris buffer and rapid filtration through 0.2%-polyethyleneimine-pretreated Schleicher & Schuell filters. The inhibition of specific binding of the radioligands by the drugs was analysed to estimate the IC50 value by using the non-linear curve-fitting programme Allfit (De Lean et al., Am. J. Physiol. 235, E97-E102 (1978)). The IC50 value was converted to an affinity constant (Ki) by the equation of Cheng & Prusoff (Biochem. Pharmacol. 22, 3099-3108 (1973)). Data were expressed as mean of Ki.

Rat aorta α1D = target: T3, Rat aorta α1D (Rattus norvegicus, UniProt P23944); assay: Functional antagonism of noradrenaline-induced contraction, rat aorta strips; format: cell-based, Sprague Dawley rats; conditions: noradrenaline as agonist, 30 minutes incubation, Schild plot; read-out: Functional affinity pKB, Rat aorta α1D (converted)
T3 construct: from tissue; host or cells: rat thoracic aorta, helicoidal strips
T3 sequence (P23944 1-561): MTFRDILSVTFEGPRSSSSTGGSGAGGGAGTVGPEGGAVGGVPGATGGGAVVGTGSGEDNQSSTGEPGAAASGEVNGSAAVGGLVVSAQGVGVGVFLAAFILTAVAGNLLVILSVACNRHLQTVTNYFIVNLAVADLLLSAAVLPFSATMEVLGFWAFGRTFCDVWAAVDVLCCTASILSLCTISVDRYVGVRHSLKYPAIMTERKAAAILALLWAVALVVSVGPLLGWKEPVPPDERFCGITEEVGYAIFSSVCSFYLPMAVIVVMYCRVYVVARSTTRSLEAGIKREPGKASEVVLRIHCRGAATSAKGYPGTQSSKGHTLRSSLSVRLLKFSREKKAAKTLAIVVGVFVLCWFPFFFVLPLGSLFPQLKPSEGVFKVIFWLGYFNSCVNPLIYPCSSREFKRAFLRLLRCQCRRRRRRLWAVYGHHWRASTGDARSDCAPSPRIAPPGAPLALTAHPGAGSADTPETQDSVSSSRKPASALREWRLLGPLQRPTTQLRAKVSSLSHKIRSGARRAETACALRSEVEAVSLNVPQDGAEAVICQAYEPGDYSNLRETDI
Protocol: In vitro assessment of functional antagonism for α1-adrenoceptor subtypes
Thoracic aorta was obtained from Sprague Dawley rats, cut in helicoidal strips and placed in Krebs solution containing desmethylimipramine (0.1 µM), corticosterone (1 µM), propranol (1 µM) and yohimbine (0.1 µM). The strips were mounted for isotonic tension recording in an organ bath containing the above Krebs buffer enriched and aerated constantly with 95% O2 and 5% CO2, maintained at 37°C and loaded with 1.5 g. After an equilibration period, the strips were primed twice with 10 µM noradrenaline, then concentration/response-to-the-agonist curves were constructed before (basal) and after 30 minutes incubation with single antagonist concentrations (response). The Schild-plot parameters were evaluated by linear-regression analysis according to Tallarida and Murray (Manual of Pharmacologic Calculations with Computer Programs, 53-56, Springer-Verlag).

[3] = target: T4, human recombinant α1b adrenoceptor (Homo sapiens, UniProt P35368); assay: Radioligand binding ([3H]prazosin) on membranes of CHO cells expressing cloned α1b adrenoceptor; conditions: human cloned receptor, CHO cell membranes, 0.2 nM [3H]prazosin; read-out: Affinity (Ki) α1b
T4 construct: expressed in transfected cells; host or cells: CHO cells (membranes)
T4 sequence (P35368 1-520): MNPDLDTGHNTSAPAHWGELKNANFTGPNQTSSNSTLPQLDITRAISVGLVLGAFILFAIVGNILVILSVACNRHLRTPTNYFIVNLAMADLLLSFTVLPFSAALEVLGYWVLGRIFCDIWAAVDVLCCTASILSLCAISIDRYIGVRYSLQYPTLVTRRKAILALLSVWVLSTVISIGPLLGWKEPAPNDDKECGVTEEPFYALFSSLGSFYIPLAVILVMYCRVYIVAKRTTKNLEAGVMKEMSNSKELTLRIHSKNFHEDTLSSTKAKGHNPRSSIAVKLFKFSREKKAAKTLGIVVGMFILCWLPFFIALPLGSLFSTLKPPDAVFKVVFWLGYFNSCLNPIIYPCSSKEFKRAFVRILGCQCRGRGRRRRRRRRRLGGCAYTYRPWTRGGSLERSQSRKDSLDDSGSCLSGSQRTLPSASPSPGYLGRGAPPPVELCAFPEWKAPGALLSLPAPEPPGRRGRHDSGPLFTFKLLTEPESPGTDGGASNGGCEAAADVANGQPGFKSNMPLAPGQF
Protocol: as §2

[4] = target: T5, human recombinant α1a adrenoceptor (Homo sapiens, UniProt P35348); assay: Radioligand binding ([3H]prazosin) on membranes of CHO cells expressing cloned α1a adrenoceptor; conditions: human cloned receptor, CHO cell membranes, 0.2 nM [3H]prazosin; read-out: Affinity (Ki) α1a
T5 construct: expressed in transfected cells; host or cells: CHO cells (membranes)
T5 sequence (P35348 1-466): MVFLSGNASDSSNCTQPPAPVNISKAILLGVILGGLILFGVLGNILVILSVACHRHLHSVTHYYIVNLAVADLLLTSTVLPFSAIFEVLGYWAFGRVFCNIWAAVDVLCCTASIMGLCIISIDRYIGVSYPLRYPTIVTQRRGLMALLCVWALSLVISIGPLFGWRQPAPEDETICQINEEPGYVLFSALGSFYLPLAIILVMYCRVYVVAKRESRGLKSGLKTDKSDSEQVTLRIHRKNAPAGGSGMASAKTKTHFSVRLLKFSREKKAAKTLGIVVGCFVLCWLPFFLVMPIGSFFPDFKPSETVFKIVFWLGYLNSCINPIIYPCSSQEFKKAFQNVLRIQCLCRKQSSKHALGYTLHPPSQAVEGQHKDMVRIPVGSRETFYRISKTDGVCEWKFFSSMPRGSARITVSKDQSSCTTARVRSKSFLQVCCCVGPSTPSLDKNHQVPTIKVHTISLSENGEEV
Protocol: as §1

[5] = human cloned receptor, HeLa cell membranes, 1.2 nM [3H]8-OH-DPAT

SMILES	Ki [1] [nM]	Ki [2] [nM]	Ki [2, 5] [nM]	Kb (Rat aorta α1D) [nM]	Ki [3] [nM]	Ki [4] [nM]
O=C1CC2(CCCCC2)CCN1CCN1CCN(c2cc(Cl)ccc2Cl)CC1 [Example 25, 3-{2-[4-(2,5-Dichlorophenyl)-1-piperazinyl]-ethyl}-3-azaspiro[5.5]undecane-2-one]	0.66	40.4	–	–	–	–
O=C1CC2(CCCCCC2)CC(=O)N1CCN1CCN(c2cc(Cl)ccc2Cl)CC1 [Example 26, 3-{2-[4-(2,5-Dichlorophenyl)-1-piperazinyl]-ethyl}-3-azaspiro[5.6]dodecane-2,4-dione]	0.96	35.3	–	–	–	–
O=C1CC2(CCCC2)CCN1CCN1CCN(c2cc(Cl)ccc2Cl)CC1 [Example 19, 8-{2-[4-(2,5-Dichlorophenyl)-1-piperazinyl]-ethyl}-8-azaspiro[4.5]decane-7-one]	–	–	17.4	1.29	10.6	–
Cc1ccc(Cl)c(N2CCN(CCN3C(=O)CC4(CCCC4)CC3=O)CC2)c1 [Example 3, 8-{2-[4-(2-Chloro-5-methylphenyl)-1-pirerazinyl]-ethyl}-8-azaspiro[4.5]decane-7,9-dione]	–	–	69.5	–	193	126
O=C1CCC(=O)N1CCN1CCN(c2cc(Cl)ccc2Cl)CC1 [Example 12, 1-{2-[4-(2,5-Dichlorophenyl)-1-piperazinyl]-ethyl}-pyrrolidine-2,5-dione]	7.78	> 1000	–	–	86.4	–
